From patent US7829560B2, “1,4-disubstituted naphthalenes as inhibitors of P38 MAP kinase” (Arqule, Inc., priority 2004, dated 2010)

What was measured:
p38α = biological target: T1, p38α (Homo sapiens, UniProt Q16539); assay: p38 MAP Kinase assay: inhibition of ATF2 phosphorylation, ELISA; format: biochemical; details: for IC50: ATF2 phosphorylation, read-out: [ENZ] P38 ALPHA, IC50, ELISA
T1 construct: p38 MAP Kinases are recombinant human full-length proteins with an amino-terminal GST fusion; GST (N); purchased Upstate Biotechnology Inc; host or cells: E. coli
T1 sequence (Q16539 whole entry, the tested form may be a part): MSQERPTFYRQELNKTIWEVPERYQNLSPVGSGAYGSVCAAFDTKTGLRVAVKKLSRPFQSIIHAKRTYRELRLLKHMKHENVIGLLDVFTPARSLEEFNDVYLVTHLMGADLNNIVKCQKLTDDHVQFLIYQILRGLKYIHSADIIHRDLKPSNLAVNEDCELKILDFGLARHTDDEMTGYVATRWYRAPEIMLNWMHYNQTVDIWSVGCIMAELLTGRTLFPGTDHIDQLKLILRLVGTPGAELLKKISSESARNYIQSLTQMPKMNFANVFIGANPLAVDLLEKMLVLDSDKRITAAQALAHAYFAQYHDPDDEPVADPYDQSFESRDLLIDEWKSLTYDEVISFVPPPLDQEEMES
In short: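 GST-tagged full-length human p38 MAP kinase with GST-ATF2 (aa 19–96; 1.25 μM) and 40 μM ATP in HEPES pH 7.5 buffer, without (Method I) or with (Method II) 1% human serum albumin. Compound pre-incubated 15 min at room temperature; reaction 30 min at 37 °C; ATF2 Thr69 phosphorylation measured by ELISA (A450).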

[1] = system: TNFα release from THP-1 cells; assay: Inhibition of TNFα release from LPS-stimulated THP-1 cells, ELISA; format: cell-based; details: Homo sapiens, THP-1, THP-1 cells, read-out: [CELL] THP-1, IC50, TNF ALPHA, ELISA
In short: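 Human THP-1 monocytes, 10^6 cells/ml in RPMI with 10% FBS, no serum or 1% HSA, preincubated 30 min at 37 °C with compound (≤0.5% DMSO), then stimulated with 10 μg/ml LPS for 18 h. Supernatant TNFα measured by ELISA; IC50 from non-linear dose-response regression.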

| SMILES | IC50 (p38α) [nM] | melting point [°C] | IC50 [1] [nM] | inhibition at 10 µM (p38α; 10 uM, substrate ATF2, read-out: [ENZ] P38 ALPHA, PCT INH, ELISA (10 uM;ATF2) (Percent)) [%] |
| --- | --- | --- | --- | --- |
| CN1CCN(c2nccc(Oc3ccc(NC(=O)c4cc(F)cc(N5CCOCC5)c4)c4ccccc34)n2)CC1 [Compound B328, 3-Fluoro-N-(4-{[2-(4-methylpiperazin-1-yl)pyrimidin-4-yl]oxy}-1-naphthyl)-5-morpholin-4-ylbenzamide] | 4.4 | 195 to 197 | 149 | – |
| O=C(Nc1ccc(Oc2ccnc(NCC3CCCO3)n2)c2ccccc12)c1cc(F)cc(N2CCOCC2)c1 (stereo not shown) [Compound B327, 3-Fluoro-5-morpholin-4-yl-N-[4-({2-[(tetrahydrofuran-2-ylmethyl)amino]pyrimidin-4-yl}oxy)-1-naphthyl]benzamide] | 2.1 | 103 to 105 | 24.8 | – |
| O=C(Nc1ccc(OCCN2CCOCC2)c2ccccc12)c1cc(F)cc(N2CCCCCC2)c1 [Compound B67, 3-Azepan-1-yl-5-fluoro-N-[4-(2-morpholin-4-ylethoxy)-1-naphthyl]benzamide] | 620 | 142 to 144 | 9080 | 85 |
| O=C(Nc1ccc(OCCN2CCOCC2)c2ccccc12)c1cccc(-c2cccnc2)c1 [Compound B58, N-[4-(2-Morpholin-4-yl-ethoxy)-naphthalen-1-yl]-3-pyridin-3-yl-benzamide] | 8810 | 77 to 78 | > 10000 | – |
| CC1CCCN(c2cc(F)cc(C(=O)Nc3ccc(OCCN4CCOCC4)c4ccccc34)c2)C1 (stereo not shown) [Compound B202, 3-Fluoro-5-(3-methylpiperidin-1-yl)-N-[4-(2-morpholin-4-ylethoxy)-1-naphthyl]benzamide] | 291 | 145 to 148 | 9330 | – |
| CCN1CCN(c2nccc(Oc3ccc(NC(=O)c4cc(F)cc(N5CCCCC5)c4)c4ccccc34)n2)CC1 [Compound B398, N-(4-{[2-(4-Ethylpiperazin-1-yl)pyrimidin-4-yl]oxy}-1-naphthyl)-3-fluoro-5-piperidin-1-ylbenzamide] | 7.9 | 86 to 87 | 241 | – |
| CC1CCN(c2cc(F)cc(C(=O)Nc3ccc(OCc4n[nH]c(=O)n4-c4ccccc4)c4ccccc34)c2)CC1 [Compound B263, 3-Fluoro-5-(4-methyl-piperidin-1-yl)-N-[4-(5-oxo-4-phenyl-4,5-dihydro-1H-[1,2,4]triazol-3-ylmethoxy)-naphthalen-1-yl]-benzamide] | 5080 | 140 to 143 | 4260 | – |
| O=C(Nc1ccc(Oc2ccnc(N3CCCCC3)n2)c2ccccc12)c1cc(F)cc(N2CCOCC2)c1 [Compound B324, 3-Fluoro-5-morpholin-4-yl-N-{4-[(2-piperidin-1-ylpyrimidin-4-yl)oxy]-1-naphthyl}benzamide] | 19 | 190 to 191 | > 1000 | – |
| CC(C)N(C)c1nccc(Oc2ccc(NC(=O)c3cc(F)cc(N4CCCCC4)c3)c3ccccc23)n1 [Compound B385, 3-Fluoro-N-[4-({2-[isopropyl(methyl)amino]pyrimidin-4-yl}oxy)-1-naphthyl]-5-piperidin-1-ylbenzamide] | 95.6 | 102 to 104 | > 1000 | – |
| CN(C)C1CCN(c2nccc(Oc3ccc(NC(=O)c4cc(F)cc(N5CCCCC5)c4)c4ccccc34)n2)C1 (stereo not shown) [Compound B420, N-[4-({2-[3-(Dimethylamino)pyrrolidin-1-yl]pyrimidin-4-yl}oxy)-1-naphthyl]-3-fluoro-5-piperidin-1-ylbenzamide] | 15.2 | 108 to 110 | 225 | – |
| CN(C)C1CCN(c2nccc(Oc3ccc(NC(=O)c4cc(F)cc(N5CCOCC5)c4)c4ccccc34)n2)C1 (stereo not shown) [Compound B365, N-[4-({2-[3-(Dimethylamino)pyrrolidin-1-yl]pyrimidin-4-yl}oxy)-1-naphthyl]-3-fluoro-5-morpholin-4-ylbenzamide] | 28 | 106 to 108 | 56.7 | – |
| O=C(Nc1ccc(Oc2ccnc(NCCN3CCCC3)n2)c2ccccc12)c1cc(F)cc(N2CCCCC2)c1 [Compound B389, 3-Fluoro-5-piperidin-1-yl-N-[4-({2-[(2-pyrrolidin-1-ylethyl)amino]pyrimidin-4-yl}oxy)-1-naphthyl]benzamide] | 2.1 | 92 to 94 | 89 | – |
| CSc1nccc(Oc2ccc(NC(=O)c3cc(F)cc(N4CCCCC4)c3)c3ccccc23)n1 [Compound B311, 3-Fluoro-N-(4-{[2-(methylthio)pyrimidin-4-yl]oxy}-1-naphthyl)-5-piperidin-1-ylbenzamide] | 56 | 170 to 172 | 179 | – |
| O=C(Nc1ccc(Oc2ccnc(NC3CCCCC3)n2)c2ccccc12)c1cc(F)cc(N2CCOCC2)c1 [Compound B323, N-(4-{[2-(Cyclohexylamino)pyrimidin-4-yl]oxy}-1-naphthyl)-3-fluoro-5-morpholin-4-ylbenzamide] | 11.9 | 135 to 136 | 36.1 | – |
| O=C(Nc1ccc(Oc2ccnc(NCC3CC3)n2)c2ccccc12)c1cc(F)cc(N2CCCCC2)c1 [Compound B384, N-[4-({2-[(cyclopropylmethyl)amino]pyrimidin-4-yl}oxy)-1-naphthyl]-3-fluoro-5-piperidin-1-ylbenzamide] | 6.3 | 117 to 119 | 90.3 | – |
| CN(C)[C@@H]1CCN(c2nccc(Oc3ccc(NC(=O)c4cc(F)cc(N5CCCCC5)c4)c4ccccc34)n2)C1 [Compound B405, N-[4-({2-[(3R)-3-(Dimethylamino)pyrrolidin-1-yl]pyrimidin-4-yl}oxy)-1-naphthyl]-3-fluoro-5-piperidin-1-ylbenzamide] | 30.4 | 93 to 94 | 202 | – |
| CN(CC1OCCO1)c1nccc(Oc2ccc(NC(=O)c3cc(F)cc(N4CCOCC4)c3)c3ccccc23)n1 [Compound B349, N-[4-({2-[(1,3-Dioxolan-2-ylmethyl)(methyl)amino]pyrimidin-4-yl}oxy)-1-naphthyl]-3-fluoro-5-morpholin-4-ylbenzamide] | 18.7 | 111 to 112 | 74.7 | – |
| O=C(Nc1ccc(Oc2ccnc(NC3CCC3)n2)c2ccccc12)c1cc(F)cc(N2CCOCC2)c1 [Compound B331, N-(4-{[2-(Cyclobutylamino)pyrimidin-4-yl]oxy}-1-naphthyl)-3-fluoro-5-morpholin-4-ylbenzamide] | 3.7 | 110 to 112 | 237 | – |
| CC(C)CNc1nccc(Oc2ccc(NC(=O)c3cc(F)cc(N4CCOCC4)c3)c3ccccc23)n1 [Compound B318, 3-Fluoro-N-(4-{[2-(isobutylamino)pyrimidin-4-yl]oxy}-1-naphthyl)-5-morpholin-4-ylbenzamide] | 7.2 | 96 to 97 | 38.3 | – |
| O=C(Nc1ccc(Oc2ccnc(NCCN3CCOCC3)n2)c2ccccc12)c1cc(F)cc(N2CCOCC2)c1 [Compound B326, 3-Fluoro-5-morpholin-4-yl-N-[4-({2-[(2-morpholin-4-ylethyl)amino]pyrimidin-4-yl}oxy)-1-naphthyl]benzamide] | 3.1 | 112 to 114 | 76.8 | – |
